Data set [1] addresses T1, HDAC10 (Homo sapiens, UniProt Q969S8).
T1 sequence (Q969S8 1-669): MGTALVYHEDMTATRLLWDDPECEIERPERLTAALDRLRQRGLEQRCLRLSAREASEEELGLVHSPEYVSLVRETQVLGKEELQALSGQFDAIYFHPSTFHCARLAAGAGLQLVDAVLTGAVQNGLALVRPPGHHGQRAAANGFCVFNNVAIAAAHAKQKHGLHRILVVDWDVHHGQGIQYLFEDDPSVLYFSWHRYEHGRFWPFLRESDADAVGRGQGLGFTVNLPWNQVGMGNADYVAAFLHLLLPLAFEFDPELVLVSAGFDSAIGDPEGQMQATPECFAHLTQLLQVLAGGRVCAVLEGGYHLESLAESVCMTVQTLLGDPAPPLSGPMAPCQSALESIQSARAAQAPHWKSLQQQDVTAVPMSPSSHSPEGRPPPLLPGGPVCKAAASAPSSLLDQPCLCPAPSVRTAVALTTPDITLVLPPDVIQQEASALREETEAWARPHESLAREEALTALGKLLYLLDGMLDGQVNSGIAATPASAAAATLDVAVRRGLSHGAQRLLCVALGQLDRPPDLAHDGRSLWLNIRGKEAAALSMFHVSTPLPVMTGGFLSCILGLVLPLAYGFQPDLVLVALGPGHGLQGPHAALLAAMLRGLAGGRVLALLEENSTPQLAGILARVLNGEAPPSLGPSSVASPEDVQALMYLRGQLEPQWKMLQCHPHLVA
The data set can be described thus: ligand displacement TR-FRET assay, HDAC10. Type of data set: binding. Details: host or cells: Sf21 insect cells (baculovirus). As to conditions: ligand-displacement FRET assay; read-out: HDAC10 pIC50 (converted). How it is done:
Expression and purification of TwinStrepII‐GST‐HDAC10: A synthetic gene encoding TwinStrepII‐GST‐HDAC10 (human) was ordered from GeneArt (Thermo Fischer Scientific) and subcloned into the pFastBac1 vector. The resulting construct was used for transposition in E. coli DH10EMBacY cells. The isolated bacmid DNA was then used to generate the recombinant baculovirus. For protein expression, 10 mL of baculovirus was added to 1 L of Sf21 cells at a density of 1×10^6 cells/mL. The infected Sf21 cells were grown for 72 h in Sf‐900 III SFM medium (Thermo Fischer Scientific) at 27 °C. Cells were harvested by centrifugation and re‐suspended in running buffer (100 mM Tris pH 8.0, 150 mM NaCl, 1 mM EDTA and 1 mM DTT) supplemented with 10 mM MgCl2, benzonase and cOmplete protease inhibitors (Merck). […] The clarified lysate was then loaded onto a 5 mL Strep‐Tactin Superflow high capacity column (IBA) pre‐equilibrated in running buffer. After sample loading and washing, the TwinStrepII‐GST‐HDAC10 protein was eluted in running buffer supplemented with 5 mM desthiobiotin (IBA). The elution fractions containing TwinStrepII‐GST‐HDAC10 were pooled and concentrated before being injected onto a HiLoad 16/600 Superdex 200 pg size exclusion chromatography column (GE Healthcare) pre‐equilibrated with 25 mM HEPES/NaCl pH 7.5, 150 mM NaCl, 0.5 mM EDTA, 1 mM DTT and 10 % glycerol. Samples were eluted from the size exclusion chromatography column in the same buffer, flash‐frozen in liquid N2 and stored at −80 °C.
The TR‐FRET measurements of the monohydroxamic acids in this manuscript were measured in the original assay format, which is described directly below this paragraph. The TR‐FRET measurements of the dihydroxamic acids in this manuscript were measured in the modified format, which is described two paragraphs below this one.
The concentrations of reagents in 10 μL final assay volume were 3 nM GST‐HDAC10, 30 nM “Tubastatin‐Alexa647‐Tracer” and 0.5 nM Eu‐anti‐GST. GST‐HDAC10 and LanthaScreen™ Eu‐anti‐GST Antibody were purchased from Life Technologies, and the Tubastatin‐Alexa647‐Tracer was synthesized in‐house as previously described.19 An 11‐fold 1 : 3‐serial dilution of compounds starting at 2 mM was prepared in 384 well pp‐plates (Greiner) from 10 mM stocks in DMSO and 1 μL was transferred to assay plates. Nine μL of the reagent‐mix was added and the plate was incubated for 1 h at RT before TR‐FRET was measured in an EnVision™ plate reader equipped with a TR‐FRET Laser module. […] Percent inhibition was calculated for each well from negative control wells containing 2 % DMSO and positive control wells containing 20 μM SAHA. The resulting dose‐response curves were fitted in ActivityBase (IDBS) using a four‐parameter logistic model and pIC50‐values were calculated.
After drug dosing to the premixed assay reagents in buffer, plates were shaken (800 rpm orbital shaker, 30 s), centrifuged (300 g, 1 min) and incubated at room temperature in the dark for 60 min. TR‐FRET was measured with a CLARIOstar (BMG Labtech) plate reader, equipped with TR‐FRET filters.
In general terms: In TR-FRET formats the signal depends on donor and acceptor labels being close together.

In the next data set the target is T2, HDAC8 (Homo sapiens, UniProt Q9BY41).
T2 construct: purchased BPS Bioscience 50008
T2 sequence (Q9BY41 1-377): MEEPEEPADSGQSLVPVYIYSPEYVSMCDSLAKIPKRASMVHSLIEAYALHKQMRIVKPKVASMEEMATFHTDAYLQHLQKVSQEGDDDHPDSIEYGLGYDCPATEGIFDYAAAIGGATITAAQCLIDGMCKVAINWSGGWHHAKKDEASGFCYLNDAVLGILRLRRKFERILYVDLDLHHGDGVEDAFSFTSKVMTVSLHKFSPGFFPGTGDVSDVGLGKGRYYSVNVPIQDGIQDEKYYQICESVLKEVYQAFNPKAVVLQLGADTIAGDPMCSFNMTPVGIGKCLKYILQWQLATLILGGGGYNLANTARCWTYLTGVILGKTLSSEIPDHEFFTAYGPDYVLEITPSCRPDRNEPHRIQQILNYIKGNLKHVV
Briefly: HDAC-Glo I/II enzymatic assay, HDAC8. Format: biochemical. As to conditions: read-out: HDAC8 pIC50 (converted). Here is the method: Inhibitors were tested at eight serial dilutions in triplicate ranging from 50 μM–86,7 pM (HDAC6) or 100 μM–8,67 nM (HDAC1,2,3,8). Drug dosing was performed from 10 mM and 0.1 mM DMSO stock solutions with a D300e Digital Dispenser (Tecan). HDACs (7 ng/mL for HDAC1, 10 ng/mL for HDAC2, 200 ng/mL for HDAC3/Ncor2 complex, 100 ng/mL for HDAC6, 200 ng/mL for HDAC8) and inhibitors were incubated together for 30 min at room temperature. After addition of the HDAC‐Glo™ I/II reagent, plates were shaken (800 rpm orbital shaker, 30 s), centrifuged (300 g, 1 min) and incubated at room temperature for 30 min. Luminescence was detected with a CLARIOstar (BMG Labtech) plate reader.

In data set [2] the test system is SK‐N‐BE(2)C neuroblastoma cell line. The data set can be described thus: SK-N-BE(2)C cell viability assay (CellTiter-Blue). Format: cell-based. The settings on record: SK-N-BE(2)C cells. Here is the method:
Cell viability assay: SK‐N‐BE(2)C cells were cultured in Dulbecco's modified Eagle medium (DMEM, Lonza, Basel, Switzerland) supplemented with 10 % fetal calf serum (FCS, Sigma‐Aldrich) and 1 % non‐essential amino acids (NEAA, Lonza). SK‐N‐BE(2)C cells were seeded from a confluent flask into 96‐well plates in 100 μL full growth medium at a density of 5×10^3 cells per well the day before treatment. Cells were treated in triplicates with drug concentrations as indicated in the respective figure. Drugs were dosed from 50 mM and 200 mM stock solutions with a D300e Digital Dispenser (Tecan) and DMSO concentrations were normalized to 0.2 % for all wells. Plates were shaken (1000 rpm orbital shaker, 30 s) and incubated under standard culture conditions for 72 h. To each well 20 μL of CellTiter‐Blue® reagent (G8081, Promega) was added, plates were shaken (600 rpm orbital shaker, 20 s) and incubated at 37 °C overnight. Fluorescence was measured (extinction/emission: 570 nm/590 nm) on a FluoStar Optima (BMG Labtech) plate reader. Cell viability was normalized with untreated positive controls and cell‐free negative controls. IC50‐values were calculated as described in the BRET assay.
A general note: Resazurin is reduced to fluorescent resorufin, in cell work by metabolically active cells.

The test system of data set [3] is lysosomal staining with LysoTracker DND‐99 (HDAC10 knockdown phenotype). The data set can be described thus: LysoTracker assay in SK-N-BE(2)C cells. Type of data set: cell-based. The settings on record: 10 μM inhibitor, normalized to DMSO. Here is the method:
LysoTracker assay: SK‐N‐BE(2)‐C cells were seeded into 6‐well dishes at a density of 1.5×10^5 cells per well. Cells were treated with inhibitor over night at concentrations indicated in the figure and stained the following day for 1 h with 50 nM LysoTracker® Red DND‐99 in medium under standard cell culture conditions. Cells were washed with ice‐cold RPMI without phenol‐red and trypsinized for 3 min at 37 °C. Detached cells were centrifuged for 3 min at 8600 g and re‐suspended in ice‐cold RPMI without phenol red. Mean LysoTracker fluorescence was quantified on a BD FACSCanto II platform using the PE filter setting. Data were normalized to mean LysoTracker fluorescence of solvent (DMSO) treated cells.

In data set [4] the target is T1, HDAC10. The data set can be described thus: cellular BRET HDAC10 target engagement assay (stably transfected HeLa cells). The settings on record: cellular target engagement, one experiment in triplicate; read-out: HDAC10 BRET pIC50 (converted). The arrangement: host or cells: HeLa (stably transfected mono-clones). Type of data set: cell-based. How it is done: Production of mono‐clones stably expressing HDAC‐nanoBRET proteins: Plasmids expressing a fusion of HDAC10 with nanoluciferase were obtained from Promega (N2170). HeLa cells (0.75×10^6) were seeded in a 6 cm dish and after 24 h were transfected with a mix of 10 μg plasmid and 3 μL Fugene in 200 μL OptiMEM. In detail, cells were washed with pre‐warmed OptiMEM and subsequently overlaid with 2.3 mL of OptiMEM. After addition of 200 μL transfection mix, cells were incubated for 24 h at 37 °C. Cells were than trypsinized and 0.2×10^5 cells were seeded into both 10 cm and 15 cm dishes. Transformants were selected with 1 mg/mL G‐418 for 6 days with a media change after 3 days. Clones which formed colonies were picked by rinsing plates with 3 mL Trypsin/EDTA (Sigma T3924) followed by a 2 min incubation with 300 μL Trypsin/EDTA at 37 °C. Colonies were then loosened and aspirated with a 10 μL filter tip and transferred to 24‐well plates containing selection medium.
Culture of stable BRET cell lines: Stably transfected HeLa cells were cultivated under sterile conditions in polystyrene cell culture flasks (658170, Greiner) at 37 °C and 5 % CO2 in a humidified atmosphere. DMEM growth medium (D6049, Sigma) was supplemented with 10 % FCS (FBS‐12A, Capricorn Scientific), 1 % penicillin‐streptomycin (P4333, Sigma) and 1 mg/mL Geneticin (2039.3, Roth). At confluency, cells were passaged by removing old medium, DPBS (14190‐094, gibco) wash, trypsination (T4049, Sigma) and seeding in fresh growth medium.
BRET assay: The intracellular target engagement assay on HDAC10 was performed as described by the kit manufacturer in a 96‐well plate (3600, Corning) format with 1.9×10^4 cells per well and a tracer concentration of 0.3 μM. […] Drug dosing was performed from 10 mM and 1 mM DMSO stock solutions with a D300e Digital Dispenser (Tecan), DMSO concentrations were normalized to 0.5 % for all wells. Assay plates were incubated at 37 °C for 2 h followed by measurement of 450 nm and 650 nm luminescence (80 nm bandwidth) at room temperature with a CLARIOstar (BMG Labtech) plate reader 2 min after NanoLuc substrate addition.
For orientation: BRET reads energy transfer from a luciferase to a nearby fluorophore.

Data set [5] concerns acetylation of the HDAC8 substrate SMC3. Briefly: Western blot of SMC3 acetylation in SK-N-BE(2)C cells. The settings on record: relative to solvent control. Type of data set: cell-based. Here is the method: Western blot analysis of SMC3, tubulin and histone H3 acetylation: For the analysis of protein acetylation, 1.5–2×10^6 SK‐N‐BE(2)‐C cells were seeded per 10 cm dish and allowed to adhere overnight. Cells were treated for 18 h (Figure 4B) or 6 h (Figure 4E) with inhibitors at concentrations indicated in the respective figure. […] Cell debris was removed by centrifugation (15 000 g for 10 min at 12 °C).

Experimental findings from paper PMC7335359, “Design and Synthesis of Dihydroxamic Acids as HDAC6/8/10 Inhibitors” (Chemmedchem, 2020) are described below.

As a reminder, the EC50 is the concentration that produces a half-maximal response.

In the case of `COc1ccc(Cn2cc(CN(C)C)c3ccc(C(=O)NO)cc32)cc1` [Compound 2b], the results for the IC50 at HDAC10 [1] and at HDAC8 were 1620 nM and 49 nM, respectively.
As to `COc1ccc(Cn2c3c(c4ccc(C(=O)NO)cc42)CN(C)CC3)cc1` [Compound 2c], the values for the IC50 at HDAC10 [1] and at HDAC8 were 6460 nM and 141 nM, respectively.
Regarding `COc1ccc(Cn2ncc3ccc(C(=O)NO)cc32)cc1` [Compound 2f], the values for the IC50 on HDAC10 [1] and on HDAC8 were 19100 nM and 20.9 nM, respectively.
Turning to `CN1CCc2c(c3ccccc3n2Cc2ccc(C(=O)NO)cc2)C1` [Compound 1c, reference compound], in data set [2] (Figure S1), the “cytotoxicity (extent of effect)” value is on record as “fully cytotoxic”. Besides, the “lysosomal staining with LysoTracker DND-99 (HDAC10 knockdown phenotype)” value in data set [3] is “effective”.
`O=C(NO)c1ccc(Cc2c[nH]c3ccccc23)cc1` [Compound 1d, 4-((1H-indol-3-yl)methyl)-N-hydroxyb en zamide]: the IC50 is 27.5 nM at HDAC10 [1] and 39.8 nM at HDAC10 [4].
As to `COc1ccc(Cn2nc(CN(C)C)c3ccc(C(=O)NO)cc32)cc1` [Compound 2g], the IC50 on HDAC10 [1] was 6920 nM; on HDAC8, 29.5 nM. In addition, the “acetylation of SMC3 (HDAC8 substrate), Western blot” value in data set [5] is reported as “increased acetylation”.
Take `O=C(NO)c1ccc(Cn2ncc3ccccc32)cc1` [Compound 1f]: the IC50 is 234 nM on HDAC10 [1] and 389 nM at HDAC8.
Consider `COc1ccc(Cn2ccc3ccc(C(=O)NO)cc32)cc1` [Compound 2a], for which the “cytotoxicity (extent of effect)” value in data set [2] (Figure S1) is “not fully cy totoxic”. In addition, in data set [2] (Figure S1, read-out: maximum effect, cell growth inhibition), the Emax was 62%. In addition, the concentration for a half-maximal effect (EC50) in data set [2] (read-out: EC50 dose-response curve (Figure S1)) stood at 8100 nM. Besides, in data set [5], the “acetylation of SMC3 (HDAC8 substrate), Western blot” value was “increased acetylation”.
With `O=C(NO)c1ccc(Cn2ccc3ccccc32)cc1` [Compound 1a], the figures for the IC50 on HDAC10 [1] and at HDAC8 were 66.1 nM and 380 nM, respectively.
For `COc1ccc(Cc2c[nH]c3ccc(C(=O)NO)cc23)cc1` [Compound 2d], the IC50 at HDAC10 [1] is 3160 nM; on HDAC8, 69.2 nM.
Take `COc1ccc(Cc2cn(CCN(C)C)c3ccc(C(=O)NO)cc23)cc1` [Compound 2e]: the IC50 was 661 nM on HDAC10 [1] and 43.7 nM on HDAC8.
